Test results as given in patent publication US10618874B2, “Compounds, cosmetic composition and pharmaceutical composition comprising the same” (INCOSPHARM CORPORATION, priority 2018, dated 2020).

Legend:
mushroom tyrosinase = assay: tyrosinase activity inhibition assay; type: biochemical; conditions: 10, 100, 1000 and 10000 ppm; 37° C., 1 hour; FIG. 2
Method: As a specific experimental method, mushroom tyrosinase was diluted with a 0.1 M sodium phosphate buffer at 2 unit/ul and dissolved in water at 0.03 wt % of tyrosine. Each experiment group listed in the following Table 1 was also diluted in the 0.1 M sodium phosphate buffer at 10, 100, 1000, and 10000 ppm and mixed as listed in Table 1. Reaction was performed at 37° C. for 1 hour and absorbance was measured, respectively (wavelength: 490 nm, Epoch, BioTek). Based on the results, a tyrosinase inhibition ratio relative to a control group was calculated. [table]

[1] = test system: keratinocytes (HEKn) with ATG5 knocked down; assay: melanin pigmentation inhibition and autophagy proteins in ATG5 knocked-down keratinocytes; type: cell-based, human; conditions: 10 μM, FIG. 10; for expression activity of LC3-II and ATG5: western blot
Excerpt: In order to analyze whether melanin deposition inhibition activity on keratinocytes by treatment with Compound 1 and Compound 2 depends on autophagy activation, ATG5 which is the protein required for autophagy activation was knocked down and treated with melanin to analyze a pigmentation inhibition activity change.
As a specific experimental method, ATG5 siRNA was mixed according to the method of transfection reagent (RNAiMAX, cat #13778-075, Thermo) and deposited in keratinocytes (HEKn, cat # C0015C, Gibco). After 8 hours, Compound 1 and Compound 2 were diluted with Epilife (cat # MEPI500CA, Gibco) without a supplement and an antibiotic to a final concentration of 10 μM for treatment, and cells which were further cultured for 64 hours were dissolved using a cell lysis buffer containing a proteolysis inhibitor. The entire dissolved solution was fractionized using a centrifuge and only the solution containing proteins was extracted. The extracted proteins were quantified by a bicinchoninic acid (BCA) method. 20 μg of proteins were separated by 10% SDS-polyacrylamide gel electrophoresis and transferred to a nitrocellulose film. The film to which the proteins were transferred was blocked by a tris-buffered saline/0.05% Tween-20 (TBS-T) solution containing 5% BSA (bovine serum albumin, Gendepot, Cat # A0100-010) for decreasing a non-specific bonding at room temperature for 1 hour, and then a primary antibody was reacted under the condition of 4° C. overnight and a secondary antibody was reacted at room temperature for 1 hour. For visualization, an enhance chemiluminescence system was used. Then, in order to analyze melanin pigmentation inhibition activity, transfection and treatment with the compounds were performed identically, and then 10 mg/ml of melanin was added by 2 μl at a time and culturing was further performed for 2 hours. The culture medium was removed after completion of culturing, cells were separated from the plate using Trypsin-EDTA (cat # LS-015-09, WELGENE), transferred to a 1.5 ml tube and spun down, a photograph of the pellet was taken, and the absorbance of a solution of the pellet dissolved in 1N NaOH was measured (wavelength: 400 nm, Epoch, BioTek).

[2] = test system: LC3 (light chain 3; autophagy marker) in keratinocytes (HEKn); assay: western blot on LC3 protein in keratinocytes (autophagy activation); type: cell-based, human; conditions: FIG. 8
Method: (§1) For intracellular autophagy analysis by treatment with Compound 1 obtained in the above Example, a western blot was performed on a LC3 (light chain 3; autophagy marker) protein. In addition, for analysis of change in endocytosis-related genes by treatment with Compound 2 obtained in the above Example, qPCR was performed on PAR2, AAK1 (AP2 Associated Kinase 1).
As a specific experimental method, keratinocytes (HEKn, cat # C0015C, Gibco) was treated with Compound 1 and dissolved using a cell lysis buffer containing a proteolysis inhibitor. The entire dissolved solution was fractionized using a centrifuge and only the solution containing proteins was extracted. The extracted proteins were quantified by a bicinchoninic acid (BCA) method. 20 μg of proteins were separated by 10% SDS-polyacrylamide gel electrophoresis and transferred to a nitrocellulose film. The film to which the proteins were transferred was blocked by a tris-buffered saline/0.05% Tween-20 (TBS-T) solution containing 5% non-fat milk for decreasing a non-specific bonding at room temperature for 1 hour, and then a primary antibody was reacted under the condition of 4° C. overnight and a secondary antibody was reacted at room temperature for 1 hour. For visualization, an enhanced chemiluminescence system was used.

[3] = test system: human-derived melanin cells (HEMn-DP); MITF, Tyrosinase mRNA; assay: melanosome maturation-related genes (qPCR) and melanin content in melanin cells; type: cell-based; conditions: 1 ml of 20 μM added to 1 ml medium, 48 hours, FIGS. 5 to 7
Method: In order to analyze how Compound 1 and Compound 2 obtained in the above Examples affect melanosome maturation, an amount of melanosome maturation-related mRNA after treated with Compound 1 and Compound 2 was analyzed with qPCR and a melanin content was measured with absorbance.
As a specific experimental method, human-derived melanin cells (HEMn-DP, cat # C2025C, Gibco) were constantly deposited to the number of 1×10^5 in a 6 well plate for culturing and cultured in an incubator for 24 hours under the condition of 37° C. and 5% CO2 in M254 (cat # M-254-500, Gibco). Each of Compound 1 and Compound 2 was dissolved in DW at a concentration of 100 mM to form a concentration solution, which was diluted in a medium at a concentration of 20 μM, 1 ml of each diluted solution was added to each well containing 1 ml of the medium first for treatment and cultured for 48 hours, and RNeasy mini kit (cat #74106, QIAGEN) was used to extract RNA from melanin cells. […] Then, the experiment was performed identically, the medium was removed after completion of culturing, melanin cells were separated from the plate using Trypsin-EDTA (cat # LS-015-09, WELGENE), transferred to a 1.5 ml tube, and spun down, a photograph of the pellet was taken, and the absorbance of a solution of the pellet dissolved in 1N NaOH was measured (wavelength: 400 nm, Epoch, BioTek).

[4] = test system: melanin cells (human primary melanocyte, HEMn-DP); assay: MTT assay in melanocytes; type: cell-based; conditions: 5, 10 and 50 μM, 4 days, FIG. 3
Method: (§2) In order to confirm a treatment concentration of Compound and Compound 2 obtained in the above Examples having no cytotoxicity thereby, an MTT assay was performed.
(§3) As a specific experimental method, in order to confirm cytotoxicity depending on the treatment concentration of Compound 1 and Compound 2, apoptosis analysis was performed in melanin cells (human primary melanocyte, HEMn-DP, cat # C2025C, Gibco) and keratinocytes (human primary keratinocyte, HEKn, cat # C0015C, Gibco). Cells were deposited to the number of 1×10^4 cells/well in a 96 well plate and cultured in an incubator for 24 hours under the condition of 37° C. and 5% CO2.
(§4) Each of Compound 1 and Compound 2 obtained in the above Examples was dissolved in distilled water (DW) at a concentration of 100 mM to form a concentrated solution, which was diluted with a medium, and treatment was performed at concentrations of 5, 10, and 50 μM. After 4 days, the medium of the plate was removed and the plate was treated with 100 μl of an MTT reagent (Sigma, 0.5 mg/ml). After 4 hours, the reagent was removed, dimethyl sulfoxide (DMSO) was added thereto, and absorbance was measured (wavelength: 570 nm, Epoch, BioTek). Here, cell viability was calculated as a percentage to absorbance of a control group (blank) which was not treated with the compound.

[5] = test system: keratinocytes (human primary keratinocyte, HEKn); assay: MTT assay in keratinocytes; type: cell-based; conditions: 5, 10 and 50 μM, 4 days, FIG. 4
Method: as §2, §3, §4

[6] = test system: human-derived keratinocytes (HEKn); assay: melanin pigmentation in keratinocytes after melanin treatment; type: cell-based; conditions: 48 hours treatment, then melanin 2 hours; absorbance 400 nm; FIG. 9
Method: In order to analyze how Compound 1 and Compound 2 obtained in the above Examples affect melanin pigmentation, a degree of pigmentation inhibition by melanin treatment was analyzed.
As a specific experimental method, human-derived keratinocytes (HEKn, cat # C0015C, Gibco) were constantly deposited to the number of 1×10^5 in a 6 well plate for culturing and cultured in an incubator for 24 hours under the condition of […] and 5% CO2 in EpiLife (cat # MEPI500CA, Gibco). Each of Compound 1 or Compound 2 obtained in the above Examples was dissolved at a concentration of 100 mM to form a concentration solution, which was diluted in a medium at a concentration of 20 μM, 1 ml of each diluted solution was added to each well containing 1 ml of the medium first for treatment and cultured for 48 hours, and 10 mg/ml of melanin was added by 2 μl at a time and culturing was further performed for 2 hours. The medium was removed after completion of culturing, cells were separated from the plate using Trypsin-EDTA (cat # LS-015-09, WELGENE), transferred to a 1.5 ml tube and spun down, a photograph of the pellet was taken, and the absorbance of a solution of the pellet dissolved in 1N NaOH was measured (wavelength: 400 nm, Epoch, BioTek).

keratinocytes (HEKn) = assay: melanosome degradation: confocal and transmission electron microscopy of keratinocytes given melanosomes; type: cell-based, human; conditions: 10 μM; confocal microscope; FIG. 11
Method: In order to confirm whether melanosome and autuphagosome are co-localized by treatment with Compound 1 and Compound 2 obtained in the above Examples, analysis was performed with an electron microscope and a confocal microscope.
As a specific experimental method, Lysis Buffer (Tris 20 mM, NaCl 150 mM, EDTA 1 mM, sucrose 250 mM in DW) was added to melanin cells (HEMn-DP, cat # C2025C, Gibco) containing human-derived melanin at high concentration, freezing and thawing were repeated twice to break a cell membrane, and centrifugation was performed at 1000×g for 5 minutes, thereby obtaining a supernatant. Cushion Buffer (Tris 20 mM, NaCl 150 mM, EDTA 1 mM, sucrose 1.5M in DW) was placed in an ultracentrifuge tube, the same amount of supernatant was added thereto, and then centrifugation was performed under the conditions of 25,000 rpm, […], and 4° C., thereby obtaining melanosomes. The concentration of melanosomes was measured using synthesized melanin (cat # M8631, sigma) as a standard. Keratinocytes (HEKn, cat # C0015C, Gibco) was deposited in a 6 well by 1×10^5 cells/well at a time and cultured for one day. Treatment with 10 μM of Compound 1 and compound 2 each was performed, culturing was performed for one day, separated melanosomes (5 μg/well) was added, and culturing was further performed for 2 days. […]

[7] = test system: PAR-2 gene in keratinocytes (HEKn); assay: qPCR of endocytosis-related gene PAR2 in keratinocytes; type: cell-based, human; conditions: FIG. 8
Method: as §1
As a specific experimental method, from keratinocytes (HEKn, cat # C0015C, Gibco) treated with Compound 2, RNA was extracted using a RNeasy mini kit (cat #74106, QIAGEN), cDNA was synthesized using a cDNA synthesis kit (cat # FSQ-201, TOYOBO), and then a PAR2(F: CTCTCCTGCAGTGGCACCAT; R: GATGTGCCATCAACCTTACCAA) primer and POWER SYBR MASTER MIX (cat #4367659, Thermo) were mixed at a recommended ratio with the synthesized cDNA, and qPCR was performed with QuantStudio 3 equipment (cat # A28131, Thermo).

Row | tyrosinase activity inhibition (mushroom tyrosinase) | Structure (SMILES) | melanin amount in keratinocytes [1] | expression activity of LC3-II and ATG5 [1] | production of LC3-II (matured autophagosome) [2] | influence on melanosome maturation activity (tyrosinase and MITF mRNA, melanin content) [3] | cytotoxicity (MTT, cell viability) [4] | cytotoxicity (MTT, cell viability) [5] | melanin pigmentation on keratinocytes [6] | co-localization of increased autophagosomes with melanosomes (keratinocytes (HEKn)) | expression of the PAR-2 gene [7]
1 | did not inhibit tyrosinase activity | CC(=O)N1C[C@H](O)C[C@H]1C(=O)NCCCC[C@H](NC(=O)[C@H](CCCCN(CC(=O)O)CC(=O)O)N(CC(=O)O)CC(=O)O)C(=O)O [Compound 1] | not decreased | inhibited | increased | almost no influence | almost no cytotoxicity | almost no cytotoxicity | effectively inhibited | co-localized with melanosomes | 
2 | did not inhibit tyrosinase activity | O=C(O)CN(CCCC[C@@H](C(=O)N1C[C@H](O)C[C@H]1C(=O)O)N(CC(=O)O)CC(=O)O)CC(=O)O [Compound 2] | not decreased | inhibited |  | almost no influence | almost no cytotoxicity | almost no cytotoxicity | effectively inhibited | co-localized with melanosomes | decreased
